In US12180084B2, “Cerium (III) carbonate formulations” (THE REGENTS OF THE UNIVERSITY OF CALIFORNIA, priority 2019, dated 2024):

Assays:
[1] = MB dye photodegradation in ZnO-based sunscreen film (Neutrogena Sheer Zinc Face Mineral Sunscreen SPF 50)
Experimental: A commercial ZnO-based sunscreen (Neutrogena Sheer Zinc Face™ Mineral Sunscreen SPF 50 consisting of 21.6% of ZnO solid as the only listed active ingredient) was mixed with Methylene Blue (MB) organic dye as follows. In a plastic cup, (10 g capacity; obtained from Flacktek Inc. USA), sunscreen (3 g; Neutrogena Sheer Zinc Face™ Mineral Sunscreen SPF 50) and an aqueous solution of 10^−3 M MB dye (0.6 mL) was mixed with a spatula for 3 minutes. Immediately afterwards, the mixture was high sheared in a Flactek high-speed mixer at 3500 rpm for 3 min. […] These wet drawn down coupons were treated with UV radiation in a photoreactor, without drying, for varying times and were subsequently directly extracted. The extraction employed ethanol solvent to remove MB dye and permit its quantification prior/post UV radiation exposure, so as to determine the extent of MB dye degradation by subtraction. Specifically, to accomplish this, two small strips (100 mg of each) were cut from the wet drawn-down coupons with a scissor/sharp blade so as to not smudge the film of applied sunscreen, and these strips were subsequently exposed to UV radiation in a photoreactor. The photoreactor was equipped with 14 UV-lamps of 254 nm wavelength and delivering a power of 145-155 lux for 4 h. The relative humidity during UV-exposure was controlled to be 100% by placing a water-filled Petri dish (200 mL capacity) in the photoreactor chamber for at least 16 h prior to start of photocatalysis experiment. […] This resulting clear ethanol solution of MB dye was used for measurement of the MB dye concentration UV-visible spectrophotometry, using the absorbance maximum at 654 nm. A control experiment was similarly performed to quantify amount of MB dye from sunscreen films which never underwent UV-radiation exposure (t=0 time point). […] The extent of dye photodegradation was determined by calculating the percentage of decrease in the absorbance intensity of dye at the wavelength of maximum absorption. […]

[2] = CR dye photodegradation in TiO2-based sunscreen film (Neutrogena Broad Spectrum Mineral Sunscreen SPF 60+)
Experimental: Films on filter paper were fabricated and photoreactor experiments were conducted exactly the same way as described in Example 7.3, using CR dye, except UV irradiation in the photoreactor was conducted for a period of 4 h. These films contained either no UV-protecting agent, 3.0 wt. % of Ce2(CO3)3·6H2O that was synthesized according to Example 3, 3.0 wt. % of commercial Ce2(CO3)3·xH2O (Acros Organics), or 3.0 wt. % of ZnO (NANOBYK-3840). […] Upon adding 3 wt. % of Ce2(CO3)3·6H2O synthesized according to Example 3 to the sunscreen formulation, a decrease in the amount of CR dye photodegradation to 15±1% is observed. […] When cerium carbonate consisting of Ce2(CO3)3·xH2O from Acros Organics is instead used in place of Ce2(CO3)3·6H2O synthesized according to Example 3, photoprotection with 24±2% CR dye photodegradation is observed. The properties of Ce2(CO3)3·xH2O from Acros Organics have been ascribed in Example 4, and these aspects are borne out in conjunction with sunscreen-based formulations here as well. When instead of cerium carbonate ZnO (NANOBYK-3840) is used as a UV-protecting agent, less effect on CR dye photodegradation is observed. This is a similar outcome to observations with MB dye and ZnO-based sunscreen formulation in Example 7.2.
The amount of Ce2(CO3)3·6H2O synthesized according to Example 3 that was incorporated into the TiO2-based sunscreen was increased to 5.0 wt. %, and results are shown in FIGS. 23A-23B and are summarized in Table 4. […] There is a slight diminishing return for adding Ce2(CO3)3·6H2O both here and in Example 7.2, but the effect of increasing Ce2(CO3)3·6H2O on organic-molecule photoprotection is much more pronounced than in the case of ZnO.

## O.O.O.O.O.O.O=C([O-])[O-].O=C([O-])[O-].O=C([O-])[O-].[Ce+3].[Ce+3] [Ce2(CO3)3·6H2O]
[1]; 0.5 wt. % added agent relative to sunscreen weight
  % of MB dye photodegradation after 4 h of UV irradiation in photoreactor: 36%±2
[1]; 0.5 wt. % added agent relative to sunscreen weight, listed as Ce2(CO3)3•6H2O synthesized according to Example 3
  % of MB dye photodegradation after 4 h of UV irradiation in photoreactor: 36 ± 2%
[1]; 1.5 wt. % added agent relative to sunscreen weight
  % of MB dye photodegradation after 4 h of UV irradiation in photoreactor: 25%±2
[2]; 3.0 wt. % added agent relative to sunscreen weight, listed as Ce2(CO3)3·6H2O synthesized according to Example 3
  % of CR dye photodegradation after 4 h of UV irradiation in photoreactor: 15±1%
[2]; 3.0 wt. % added agent relative to sunscreen weight, listed as Ce2(CO3)3•6H2O synthesized according to Example 3
  % of CR dye photodegradation after 4 h of UV irradiation in photoreactor: 15 ± 1%
[2]; 5.0 wt. % added agent relative to sunscreen weight
  % of CR dye photodegradation after 4 h of UV irradiation in photoreactor: 10 ± 1%
